According to patent publication US7078401B2, “Thiophenylaminoimidazolines as IP antagonists” (Roche Palo Alto LLC, priority 2003, dated 2006):
Structures can show the parent of a compound that is named as a salt.

Clc1ccc(Sc2ccc(CNC3=NCCN3)cc2)cc1 (as salt: hydrochloride) [Compound 9, [4-(4-Chloro-phenylsulfanyl)-benzyl]-(4,5-dihydro-1H-imidazol-2-yl)-amine]
melting point: 127 to 130 °C

COc1ccc(Sc2ccc(NC3=NCCN3)cc2)cc1 (as salt: hydrochloride) [Compound 5, (4,5-Dihydro-1H-imidazol-2-yl)-[4-(4-methoxy-phenylsulfanyl)-phenyl]-amine]
melting point: 149 to 150 °C

COc1ccc(Sc2ccc(NC(=N)N)cc2)cc1 [Example 2, N-[4-(4-Methoxy-phenylsulfanyl)-phenyl]-guanidine]
melting point: 140 to 141 °C

Clc1ccc(Sc2ccc(NC3=NCCCC3)cc2)cc1 (as salt: hydrochloride) [Compound 73, [4-(4-Chloro-phenylsulfanyl)-phenyl]-(3,4,5,6-tetrahydro-pyridin-2-yl)-amine]
melting point: 148 to 152 °C
